Test results taken from ChEMBL document CHEMBL1124317, “Rationale for the synthesis and preliminary biological evaluation of highly active new antitumor nitrosoureido sugars” (J Med Chem, 1989).

Assays:
[1] = test system: Mus musculus; experiment: The number of L1210 leukemia mice survived after 60 days with compound injected by a dose of 5 mg/kg intraperitoneally; 2/10; assay type: functional; settings: route intraperitoneal
[2] = test system: Mus musculus; experiment: The number of L1210 leukemia mice survived after 30 days with compound injected by a dose of 5 mg/kg intraperitoneally; 3/10; assay type: functional; settings: route intraperitoneal
[3] = test system: Mus musculus; experiment: Median survival time of the non surviving mice; treated with 2.5 mg/kg of compound to mice with L1210 leukemia; 11-14; assay type: functional
[4] = test system: Mus musculus; experiment: The number of L1210 leukemia mice survived after 30 days with compound injected by a dose of 30 mg/kg intraperitoneally; 9/10; assay type: functional; settings: route intraperitoneal
[5] = test system: Mus musculus; experiment: Median survival time of the non surviving mice; treated with 1.25 mg/kg of compound to mice with L1210 leukemia; 16-19; assay type: functional
[6] = Mortality range of the mice with B16 Melanocarcinoma treated with 10 mg/kg of dose intraperitoneally with no of mice survived/no of mice treated; 0/10; assay type: functional; settings: route intraperitoneal
[7] = test system: Mus musculus; experiment: The number of B16 Melanocarcinoma mice survived after 60 days with compound injected by a dose of 10 mg/kg intraperitoneally; 3/10; assay type: functional; settings: route intraperitoneal
[8] = test system: Mus musculus; experiment: The number of L1210 Leukemia mice survived after 30 days with compound in olive oil injected by a dose of 20 mg/kg intraperitoneally; 15/15; assay type: functional; settings: route intraperitoneal
[9] = test system: Mus musculus; experiment: Median survival time of the non surviving mice; treated with 0.625 mg/kg of compound to mice with L1210 leukemia; 10-12; assay type: functional
[10] = test system: Mus musculus; experiment: The number of L1210 leukemia mice survived after 60 days with compound injected by a dose of 20 mg/kg intraperitoneally; 10/10; assay type: functional; settings: route intraperitoneal
[11] = test system: Mus musculus; experiment: The number of B16 melanocarcinoma mice survived after 60 days with compound in olive oil injected by a dose of 20 mg/kg intraperitoneally; 3/20; assay type: functional; settings: route intraperitoneal
[12] = (§1) Lethal dose was evaluated in female mouse; assay type: toxicity, organism-based; settings: in vivo
[13] = organism: Mus musculus; experiment: as §1; assay type: toxicity, organism-based; settings: in vivo
[14] = Mortality range of the mice with L1210 leukemia treated with 5 mg/kg of dose intraperitoneally with no of mice survived/no of mice treated; 0/8; assay type: functional; settings: route intraperitoneal
[15] = Mortality range of the mice with L1210 leukemia treated with 2.5 mg/kg of dose intraperitoneally with no of mice survived/no of mice treated; 0/8; assay type: functional; settings: route intraperitoneal
[16] = test system: Mus musculus; experiment: The number of B16 Melanocarcinoma mice survived after 30 days with compound injected by a dose of 30 mg/kg intraperitoneally; 10/10; assay type: functional; settings: route intraperitoneal
[17] = test system: Mus musculus; experiment: Anti tumor activity l when treated to mice with B16 Melanocarcinoma with 5 mg/kg dose of compound intraperitoneally was expressed as percent of treated to control (T/C %); assay type: functional; settings: route intraperitoneal
[18] = Mortality range of the mice with L1210 leukemia treated with 2.5 mg/kg of dose intra peritoneally with no of mice survived/no of mice treated; 0/10; assay type: functional
[19] = test system: Mus musculus; experiment: The number of L1210 leukemia mice survived after 60 days with compound injected by a dose of 5 mg/kg intraperitoneally; 8/8; assay type: functional; settings: route intraperitoneal
[20] = Mortality range of the mice with L1210 leukemia treated with 20 mg/kg of dose intraperitoneally with no of mice survived/no of mice treated; 0/10; assay type: functional; settings: route intraperitoneal
[21] = test system: Mus musculus; experiment: The number of L1210 leukemia mice survived after 30 days with compound injected by a dose of 5 mg/kg intraperitoneally; 8/8; assay type: functional; settings: route intraperitoneal
[22] = test system: Mus musculus; experiment: The number of L1210 Leukemia mice survived after 60 days with compound in olive oil injected by a dose of 20 mg/kg intraperitoneally; 7/15; assay type: functional; settings: route intraperitoneal
[23] = test system: Mus musculus; experiment: The number of L1210 leukemia mice survived after 30 days with compound injected by a dose of 2.5 mg/kg intraperitoneally; 8/8; assay type: functional; settings: route intraperitoneal
[24] = test system: Mus musculus; experiment: Median survival time of the non surviving mice; treated with 20 mg/kg of compound in olive oil to mice with L1210 leukemia tumor; […]; assay type: functional
[25] = test system: Mus musculus; experiment: The number of L1210 leukemia mice survived after 30 days with compound injected by a dose of 2.5 mg/kg intraperitoneally; 0/10; assay type: functional; settings: route intraperitoneal
[26] = test system: Mus musculus; experiment: Median survival time of the non surviving mice; treated with 20 mg/kg of compound in olive oil to mice with B16 Melanocarcinoma; 12-47; assay type: functional
[27] = test system: Mus musculus; experiment: The number of Lewis lung mice survived after 60 days with compound in olive oil injected by a dose of 20 mg/kg intraperitoneally; 18/20; assay type: functional; settings: route intraperitoneal
[28] = test system: Mus musculus; experiment: The number of L1210 leukemia mice survived after 60 days with compound in aqueous solution injected by a dose of 20 mg/kg intraperitoneally; 6/10; assay type: functional; settings: route intraperitoneal
[29] = test system: Mus musculus; experiment: The number of B16 Melanocarcinoma mice survived after 30 days with compound injected by a dose of 20 mg/kg intraperitoneally; 10/10; assay type: functional; settings: route intraperitoneal
[30] = Mortality range of the mice with L1210 leukemia treated with 1.25 mg/kg of dose intraperitoneally with no of mice survived/no of mice treated; 0/8; assay type: functional; settings: route intraperitoneal
[31] = test system: Mus musculus; experiment: The number of L1210 leukemia mice survived after 30 days with compound injected by a dose of 10 mg/kg intraperitoneally; 9/10; assay type: functional; settings: route intraperitoneal
[32] = test system: Mus musculus; experiment: Anti tumor activity l when treated to mice with B16 Melanocarcinoma with 10 mg/kg dose of compound intraperitoneally was expressed as percent of treated to control (T/C %); assay type: functional; settings: route intraperitoneal
[33] = Ratio of mice died to that of mice treated with 20 mg/kg of compound in olive oil intraperitoneally with L1210 leukemia tumor; 0/15; assay type: functional; settings: route intraperitoneal
[34] = test system: Mus musculus; experiment: Median survival time of the non surviving mice; treated with 5 mg/kg of compound to mice with L1210 leukemia; 11-32; assay type: functional
[35] = (§2) Lethal dose was evaluated in male mouse; assay type: toxicity, organism-based; settings: in vivo
[36] = organism: Mus musculus; experiment: as §2; assay type: toxicity, organism-based; settings: in vivo
[37] = test system: Mus musculus; experiment: The number of L1210 leukemia mice survived after 60 days with compound injected by a dose of 10 mg/kg intra peritoneally; 8/8; assay type: functional
[38] = test system: Mus musculus; experiment: The number of L1210 leukemia mice survived after 60 days with compound injected by a dose of 2.5 mg/kg intraperitoneally; 0/10; assay type: functional; settings: route intraperitoneal
[39] = Ratio of mice died to that of mice treated with 20 mg/kg of compound in olive oil intraperitoneally with Lewis lung; 0/20; assay type: functional; settings: route intraperitoneal
[40] = test system: Mus musculus; experiment: The number of B16 Melanocarcinoma mice survived after 60 days with compound injected by a dose of 30 mg/kg intraperitoneally; 9/10; assay type: functional; settings: route intraperitoneal
[41] = Mortality range of the mice with B16 Melanocarcinoma treated with 5 mg/kg of dose intraperitoneally with no of mice survived/no of mice treated; 0/10; assay type: functional; settings: route intraperitoneal
[42] = test system: Mus musculus; experiment: Anti tumor activity l when treated to mice with L1210 leukemia with 0.625 mg/kg dose of compound intraperitoneally was expressed as percent of treated to control (T/C %); assay type: functional; settings: route intraperitoneal
[43] = Mortality range of the mice with L1210 leukemia treated with 0.625 mg/kg of dose intraperitoneally with no of mice survived/no of mice treated; 0/8; assay type: functional; settings: route intraperitoneal
[44] = test system: Mus musculus; experiment: Median survival time of the non surviving mice; treated with 5 mg/kg of compound to mice with B16 Melanocarcinoma; 30-47; assay type: functional

CO[C@@H]1C[C@@H](NC(=O)N(CCCl)N=O)[C@H](O)[C@@H](CO)O1 [ECOMUSTINE]
Survivals [1]: 2 | Survivals [2]: 3 | Median survival time [3]: 12.9 | Survivals [4]: 9 | Median survival time [5]: 16.9 | Ratio [6]: 0 | Survivals [7]: 3 | Survivals [8]: 15 | Median survival time [9]: 11.25 | Survivals [10]: 10 | Survivals [11]: 3 | LD50 [12]: 40.7 mg/kg | LD10 [13]: 29.4 mg/kg | LD90 [13]: 56.4 mg/kg | Ratio [14]: 0 | Ratio [15]: 0 | Survivals [16]: 10 | T/C [17]: 203% | Ratio [18]: 0 | Survivals [19]: 8 | Ratio [20]: 0 | Survivals [21]: 8 | Survivals [22]: 7 | Survivals [23]: 8 | Median survival time [24]: 57.5 | Survivals [25]: 0 | Median survival time [26]: 33.33 | Survivals [27]: 18 | Survivals [28]: 6 | Survivals [29]: 10 | Ratio [30]: 0 | Survivals [31]: 9 | T/C [32]: 233% | Ratio [33]: 0 | Median survival time [34]: 15.4 | LD50 [35]: 43.3 mg/kg | LD10 [36]: 31.2 mg/kg | LD90 [36]: 60 mg/kg | Survivals [37]: 8 | Survivals [38]: 0 | Ratio [39]: 0 | Survivals [40]: 9 | Ratio [41]: 0 | T/C [42]: 125% | Ratio [43]: 0 | Median survival time [44]: 40
